According to US9109041B2, “Analog compounds of analgesic peptides derived from the venom of crotalus durissus terrificus snakes, their uses, compositions, methods of preparation and purification” (priority 2004, dated 2015):

Tested on: hyperalgesia induced by chronic constriction of the sciatic nerve
Test: hyperalgesia induced by chronic constriction of the sciatic nerve (rat paw pressure test)
Format: in vivo
Settings: for pain threshold, FM 3 h: day 14, 3 h after peptide; for pain threshold, FM 24 h: day 14, 24 h after peptide; for pain threshold, FM 48 h: day 14, 48 h after peptide; for pain threshold, FM 72 h: day 14, 72 h after peptide; for pain threshold, FM 96 h: day 14, 96 h after peptide; for pain threshold, MF 3 h: 3 h after peptide
Procedure: For the induction of neuropathic pain, surgery was performed in the sciatic nerve, in accordance with the method described by Bennett, G. J and Xie, Y. K. (Pain, 33:87-107, 1988). The animals were anesthetized with halothane. The sciatic nerve was exposed in the middle region of the thigh, moving away the femoral biceps muscle. Close to the trifurcation of the sciatic nerve, 7 mm of distance from the trifurcation, 4 loose ligations were performed (chromed catgut 4-0) around it, distant from each other in approximately 1 mm. The bindings were performed along the nerve, up to 4-5 mm from the initial point. The incision was sutured in layers, using silk suture thread number 4-0.
The test was applied before (BM-basal measurement) and on the 14th day after the surgery, to characterize the development of neuropathic pain.
The results were analyzed by comparing the means of the basal and initial measurements or by comparing the means of the initial and final measurements or, when determined, through the comparison of the means obtained in the different experimental groups.
For this purpose, the animals were treated with CTOP, a specific μ receptor antagonist (20 μg/paw), nor-BNI, a specific κ receptor antagonist (50 μg/paw) or with ICI 174,864, a specific δ receptor antagonist (10 μg/paw). The antagonists were injected, by intraplantar route. The peptide was administered in the dose of 5 μg/kg, orally, immediately before the injection of the opioid antagonists.
The results were analyzed comparing the mean values of the basal and initial measurements, or of the initial and final measurements or, when determined, by comparing the mean values obtained in the different experimental groups (Tables 15 and 16).

Xaa-Phe-Ser-Pro-Glu-Asn-Cys-Gln-Gly-Glu-Ser-Gln-Pro-Cys [SEQ ID NO: 2]
pain threshold, BM (0.0016 μg/kg p.o., before surgery): 72 ± 1.22 g
pain threshold, FM 1 h (0.0016 μg/kg p.o., day 14, 1 h after peptide): 32 ± 1.22 g
pain threshold, FM 3 h (0.0016 μg/kg p.o.): 32 ± 1.22 g
pain threshold, FM 24 h (0.0016 μg/kg p.o.): 33 ± 1.22 g
pain threshold, FM 48 h (0.0016 μg/kg p.o.): 30 ± 0.00 g
pain threshold, FM 72 h (0.0016 μg/kg p.o.): 32 ± 1.22 g
pain threshold, FM 96 h (0.0016 μg/kg p.o.): 32 ± 1.22 g
pain threshold, IM (0.0016 μg/kg p.o., day 14 after surgery, before peptide): 33 ± 1.22 g
pain threshold, BM (0.008 μg/kg p.o., before surgery): 74 ± 1.87 g
pain threshold, FM 1 h (0.008 μg/kg p.o., day 14, 1 h after peptide): 34 ± 1.00 g
pain threshold, FM 3 h (0.008 μg/kg p.o.): 30 ± 1.58 g
pain threshold, FM 24 h (0.008 μg/kg p.o.): 30 ± 0.00 g
pain threshold, FM 48 h (0.008 μg/kg p.o.): 33 ± 1.22 g
pain threshold, FM 72 h (0.008 μg/kg p.o.): 31 ± 1.00 g
pain threshold, FM 96 h (0.008 μg/kg p.o.): 32 ± 1.22 g
pain threshold, IM (0.008 μg/kg p.o., day 14 after surgery, before peptide): 33 ± 1.22 g
pain threshold, BM (0.04 μg/kg p.o., before surgery): 71 ± 1.00 g
pain threshold, FM 1 h (0.04 μg/kg p.o., day 14, 1 h after peptide): 29 ± 1.00 g
pain threshold, FM 3 h (0.04 μg/kg p.o.): 30 ± 0.00 g
pain threshold, FM 24 h (0.04 μg/kg p.o.): 31 ± 1.00 g
pain threshold, FM 48 h (0.04 μg/kg p.o.): 33 ± 1.22 g
pain threshold, FM 72 h (0.04 μg/kg p.o.): 33 ± 0.00 g
pain threshold, FM 96 h (0.04 μg/kg p.o.): 33 ± 1.22 g
pain threshold, IM (0.04 μg/kg p.o., day 14 after surgery, before peptide): 33 ± 1.22 g
pain threshold, BM (0.2 μg/kg p.o., before surgery): 73 ± 1.22 g
pain threshold, FM 1 h (0.2 μg/kg p.o., day 14, 1 h after peptide): 51 ± 1.87 g
pain threshold, FM 3 h (0.2 μg/kg p.o.): 56 ± 1.87 g
pain threshold, FM 24 h (0.2 μg/kg p.o.): 52 ± 1.22 g
pain threshold, FM 48 h (0.2 μg/kg p.o.): 54 ± 1.00 g
pain threshold, FM 72 h (0.2 μg/kg p.o.): 53 ± 1.22 g
pain threshold, FM 96 h (0.2 μg/kg p.o.): 33 ± 1.22 g
pain threshold, IM (0.2 μg/kg p.o., day 14 after surgery, before peptide): 31 ± 1.00 g
pain threshold, BM (1 μg/kg p.o., before surgery): 72 ± 1.22 g
pain threshold, FM 1 h (1 μg/kg p.o., day 14, 1 h after peptide): 73 ± 1.22 g
pain threshold, FM 3 h (1 μg/kg p.o.): 73 ± 1.22 g
pain threshold, FM 24 h (1 μg/kg p.o.): 71 ± 1.00 g
pain threshold, FM 48 h (1 μg/kg p.o.): 74 ± 1.00 g
pain threshold, FM 72 h (1 μg/kg p.o.): 71 ± 1.00 g
pain threshold, FM 96 h (1 μg/kg p.o.): 33 ± 1.22 g
pain threshold, IM (1 μg/kg p.o., day 14 after surgery, before peptide): 31 ± 1.00 g
pain threshold, FM 1 h (5 μg/kg p.o. + CTOP 20 μg/paw i.pl., 1 h after peptide): 105 ± 4.18 g
pain threshold, MF 3 h (5 μg/kg p.o. + CTOP 20 μg/paw i.pl.): 112 ± 5.83 g
pain threshold, BM (5 μg/kg p.o. + CTOP 20 μg/paw i.pl., before surgery): 72 ± 1.22 g
pain threshold, IM (5 μg/kg p.o. + CTOP 20 μg/paw i.pl., day 14, before peptide): 41 ± 1.88 g
pain threshold, FM 1 h (5 μg/kg p.o. + ICI 174,864 10 μg/paw i.pl., 1 h after peptide): 35 ± 1.87 g
pain threshold, MF 3 h (5 μg/kg p.o. + ICI 174,864 10 μg/paw i.pl.): 37 ± 2.55 g
pain threshold, BM (5 μg/kg p.o. + ICI 174,864 10 μg/paw i.pl., before surgery): 72 ± 1.22 g
pain threshold, IM (5 μg/kg p.o. + ICI 174,864 10 μg/paw i.pl., day 14, before peptide): 34 ± 1.87 g
pain threshold, FM 1 h (5 μg/kg p.o. + nor-BNI 50 μg/paw i.pl., 1 h after peptide): 69 ± 1.87 g
pain threshold, MF 3 h (5 μg/kg p.o. + nor-BNI 50 μg/paw i.pl.): 75 ± 1.58 g
pain threshold, BM (5 μg/kg p.o. + nor-BNI 50 μg/paw i.pl., before surgery): 73 ± 1.22 g
pain threshold, IM (5 μg/kg p.o. + nor-BNI 50 μg/paw i.pl., day 14, before peptide): 35 ± 1.58 g
pain threshold, BM (5 μg/kg p.o., before surgery (Table 11)): 72 ± 0.79 g
